# Data published in patent EP1944022A1, “PHARMACEUTICAL COMPOSITIONS COMBINING […] ANTICONVULSANT AGENTS FOR THE TREATMENT OF CHRONIC AND ACUTE PAIN” (ESPINOZA ABDALA, Leopoldo de Jesús, priority 2005, dated 2007).
# Tested on: nociceptive pain
# Test: uric acid-induced knee joint inflammation and pain in rats, recovery of Functionality Ratio (AUC over 4 hours)
# Type: in vivo, female Wistar rats
# Details: rat
# Protocol: An experimental preclinical study was performed that compares the analgesic effect of tramadol and gabapentin administered individually and in combination, using female Wistar rats weighting from 160 to 180 g, which were intraarticularly injected 0.05 ml uric acid suspended in mineral oil into knee joint of left hindleg under anesthesia in order to cause inflammation and pain. An electrode was connected at the plantar region of hindlegs. The rats were placed in a roller of 30 cm of diameter rotating at 4 rpm during two-minute periods. The time of contact between each electrode of the rats' hindlegs and the roller was registered. The data are expressed as Functionality Ratio (FR). […] At the same time the medicaments, alone or in combination, were administered, and the Functionality Ratio every 30 minutes for 4 hours was determined. […]
# Doses used for the combination were 3.16, 5.62, 10.0 or 17.78, 31.62, 56.23, 100.0 mg/kg of tramadol and those used for gabapentin were 31.6, 56.2, 100.0, 177.8, 316.2 mg/kg. Thus, the possible synergistic interaction (a total of 24 combinations) was analyzed.
# The synergism between gabapentin and tramadol was calculated with the synergistic interaction surface analysis and an isobolographic method (Tallarida et al., 1989). The area under the curve (AUC) was calculated for each of the combinations and for each of the components.
smiles,measurement,setting,value
NCC1(CC(=O)O)CCCCC1 [Gabapentin],"total analgesic effect, area under the curve (AUC)","gabapentin alone 316.2 mg/kg, 4-hours observation period",121.5 ± 30.3 area units
"COc1cccc(C2(O)CCCCC2CN(C)C)c1 (mixture of isomers) [tramadol, (±) cis-2-[(dimethylamino)methyl]-1-(3-metoxyphenyl) cyclohexanol]","total analgesic effect, area under the curve (AUC)",in vivo,207.7 ± 24.7 area units
